Measured values as given in patent US20030105093A1, “MTP activity-lowering compositions” (priority 1998, published 2003).
Counter-ions that a name gives are not always drawn.

Experiments:
[1] = test system: MTP (microsomal triglyceride transfer protein); assay: MTP activity-lowering activity: liver MTP activity after 2 weeks' dosing of rats; format: in vivo; conditions: SD rats, liver homogenate, control group 9.09 ± 1.0
Method: SD rats weighing about 200 g in groups of 6 were given 20 mg or 60 mg of the hydrochloride of the amino acid of the invention in 10 ml of water in 3 divided doses daily for 2 weeks. Thereafter, the liver was excised and homogenized using a homogenizing buffer (50 mM Tris (pH 7.4), 50 mM potassium chloride, 1.5 mM EDTA, leupeptin (5 μg/ml) and 2 mM phenylmethylsulfonyl fluoride) and the homogenate was centrifuged to give a liver homogenate. This liver homogenate was adjusted to a protein concentration of about 2 mg/mL with the same homogenizing buffer and 1 part of deoxycholate solution (0.56%, pH 7.5) was added to 10 parts of the homogenate. The reaction was then carried out at 4° C. for 30 minutes, whereby MTP was liberated from the microsomal fraction. The membrane fraction was then removed by centrifugation to give a supernatant. This supernatant was diluted with Tris buffer (a buffer solution containing 15 mM Tris (pH 7.4), 40 mM NaCl, 1 mM EDTA, 0.02% NaN3) and dialyzed against the same buffer at 4° C. overnight. The dialysate thus obtained was analyzed for MTP activity by the method of J. R. Wetterau [Science, 258, 999 (1992)].

[2] = test system: HepG2 cells (TG secretion); assay: TG antisecretory activity: secreted [14C]-labeled triglyceride in HepG2 medium; format: cell-based; conditions: HepG2, 10 μM, 24 hours of culture; control group 161.2 ± 2.2
Method: HepG2 cells were cultured in DME medium supplemented with 1% BSA and 0.5 mM oleic acid for 24 hours. Then, the medium was changed to 1% BSA-DME containing 10 μM of the amino acid of the invention and simultaneously 0.5 μci of [^14C] acetic acid was added. The cells and medium were recovered after 24 hours of culture. The recovered cells were homogenized by sonication, and after quantitation of protein, the amount of secreted triglyceride (TG) was determined from the amount of labeled lipid in the medium.

[3] = test system: HepG2 cells (apo B secretion); assay: Apo B antisecretory activity (1): apo B secreted into medium by HepG2 cells, ELISA; format: cell-based, human; conditions: for Apo B secretions (μg/well): 24 hours' culture, control group 9.92 ± 0.80
Method: HepG2 cells (100×10^4 cells/dish) were sown on 3.5 cm dishes and precultured using 1 ml DME (containing 10% FCS) medium per dish. Following this preculture, the cells were washed with DME medium twice, added to the test medium, and cultured at 37° C. under 95% air-5% carbon dioxide for 24 hours. The test medium was prepared by dissolving cycloalliin in dimethyl sulfoxide and diluted with DME medium containing 1% ESA and 0.5 mM oleic acid to a final cycloalliin concentration of 10^−6 M or 10^−4 M.
After 24 hours' culture, the medium was recovered and the amount of apo B secreted into the medium was determined by ELISA. Thus, anti-human apo B antibody (a 100-fold dilution) was distributed into a 96-well ELISA plate, 100 μL per well, and incubated at 37° C. for 2 hours. Then, 100 μL/well of Block Ace was added and the plate was further incubated at 37° C. for 2 hours. The wells were washed with PBS-Tween×3 and 100 μL each of apo B standard solution and HepG2 culture were added, followed by further incubation at 4° C. for 16 hours. After the wells were washed with PBS-Tween×3, 100 μL/well of anti-human apo B marker antibody (a 200-fold dilution) was added and the plate was incubated at 37° C. for 2 hours. The wells were washed with PBS-Tween×3, then 100 μL/well of the substrate solution was added, and the plate was incubated at 25° C. for 30 minutes. The reaction was stopped by adding 50 μL of 4.5 M H2SO4 and the absorbance at 482 nm was measured to estimate the amount of apo B secretion.

[4] = 60 mg daily in 3 divided doses for 2 weeks

Question: For “S-methyl-L-cysteine sulfoxide [S-methyl-L-cysteine sulfoxide HCl]”, which “MTP activity (%)” value [1, 4] is on record?
Answer: The value was 5.43 ± 0.6 %.

Question: For S-n-propyl-L-cysteine sulfoxide, which “TG secretions ([^14C] dpm × 10^−2/mg protein)” value [2] is on record?
Answer: Its value is 105.8 ± 18.9 [^14C] dpm × 10^−2/mg protein.

Question: Which results are given for `C[C@H]1C[S@+]([O-])C[C@@H](C(=O)O)N1` [Cycloalliin HCl, (1S, 3R, 5S)-5-methyl-1,4-thiazane-3-carboxylic acid 1-oxide]?
Answer: MTP activity (%) ([1]; 20 mg daily in 3 divided doses for 2 weeks): 6.12 ± 0.7 %; MTP activity (%) [1, 4]: 4.92 ± 1.0 %

Question: What does the source list for `C[C@H]1C[S@+]([O-])C[C@@H](C(=O)O)N1` [Cycloalliin, (1S, 3R, 5S)-5-methyl-1,4-thiazane-3-carboxylic acid 1-oxide]?
Answer: Apo B secretions (μg/well) ([3]; HepG2, 10^−4 M): 7.67 ± 1.31 μg/well; Effect on apo B secretion (in words) ([3]; HepG2, 10^−6 M or 10^−4 M, 24 hours, vs control group): significant suppression of apo B secretion; Apo B secretions (μg/well) ([3]; HepG2, 10^−6 M): 7.54 ± 1.13 μg/well
